In patent publication US6818649B2, “Chromenylmethyl pyrimidinediamines as antibacterial agents” (Basilea Pharmaceutica AG, priority 2000, dated 2004):
≈ marks a conversion by molar mass, not a printed value.

Key:
[1] = molecular target: T1, purified DHFR of strain Sp1/1 of Streptococcus pneumoniae (Streptococcus pneumoniae, UniProt Q54801); conditions: read-out: DHFR Spn1/1 (IC50); purified DHFR of S. pneumoniae strain Spn1/1; IC50 determined graphically
T1 sequence (Q54801 1-168): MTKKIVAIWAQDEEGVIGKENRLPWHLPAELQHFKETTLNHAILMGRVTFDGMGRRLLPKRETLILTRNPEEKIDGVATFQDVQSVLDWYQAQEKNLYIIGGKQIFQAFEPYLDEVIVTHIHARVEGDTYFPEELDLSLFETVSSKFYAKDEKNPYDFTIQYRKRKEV
Excerpt: 3: DHFR Spn1/1; μM—the IC50-values in μM against the purified DHFR of the above strain Sp1/1 of Streptococcus pneumoniae.

[2] = molecular target: purified DHFR of the strain 157/4696 (highly trimethoprim-resistant; clinical isolate) of Staphylococcus aureus (Staphylococcus aureus, UniProt P13955); test: biochemical
Excerpt: The inhibition of the enzyme was taken as a measurement for the antibacterial activity.

[3] = tested on: Streptococcus pneumoniae 1/1, Trimethoprim- and Penicillin-resistant, Serotype 6; clinical isolate; test: MIC against Streptococcus pneumoniae 1/1; format: cell-based; conditions: read-out: MIC Spn1/1
Protocol: (§1) The following Table contains inhibitory concentrations determined in the above test for representative members of the class of compound defined by formula I. The following microorganisms were tested: […]
Col. 1: MIC Spn1/1; μg/ml (Streptococcus pneumoniae 1/1, Trimethoprim- and Penicillin-resistant, Serotype 6; clinical isolate, stored at −80° C.)
Lit.: H. Locher et al., Can. J. Infect. Dis.6: Suppl. C, p 469C.

[4] = tested on: Staphylococcus aureus 101, MRSA and Trimethoprim-resistant; clinical isolate; test: MIC against Staphylococcus aureus 101; format: cell-based; conditions: read-out: MIC Sa101
Protocol: as §1
Col. 2: MIC Sa101; μg/ml (Staphylococcus aureus 101, MRSA^*)— and Trimethoprim-resistant; clinical isolate, stored at −80° C.)
^*) MRSA=Methicillin Resistant Staphylococcus Aureus

Row | SMILES | IC50 [1] | IC50 [2] | MIC [3] | MIC [4] | melting point
1 | CCOc1cc(Cc2cnc(N)nc2N)cc2c1OC(C)(C)C=C2C [Example 8, 5-(8-Ethoxy-2,2,4-trimethyl-2H-chromen-6-ylmethyl)-pyrimidine-2,4-diamine] | 15 nM | 1300 nM | 2 µg/mL (≈ 5.87 µM) | 4 µg/mL (≈ 11.7 µM) | 216 to 218 °C
2 | CCOc1cc(Cc2cnc(N)nc2N)cc2c1OC(C)(C)C=C2CC [Example 9, 5-(8-Ethoxy-4-ethyl-2,2-dimethyl-2H-chromen-6-ylmethyl)-pyrimidine-2,4-diamine] | 12 nM | 670 nM | 1 µg/mL (≈ 2.82 µM) | 4 µg/mL (≈ 11.3 µM) | 222 to 225 °C (dec.)
3 | CCCC1=CC(C)(C)Oc2c(OCC)cc(Cc3cnc(N)nc3N)cc21 [Example 10, 5-(8-Ethoxy-2,2-dimethyl-4-propyl-2H-chromen-6-ylmethyl) -pyrimidine-2,4-diamine] | 15 nM | 1100 nM | 2 µg/mL (≈ 5.43 µM) | 4 µg/mL (≈ 10.9 µM) | 208 to 209 °C
4 | COCC#CC1=CC(C)(C)Oc2c(OC)cc(Cc3cnc(N)nc3N)cc21 [Example 16, 5-[8-Methoxy-4-(3-methoxy-prop-1-ynyl)-2,2-dimethyl-2H-chromen-6-ylmethyl]-pyrimidine-2,4-diamine] | 680 nM | 220 nM | > 8 µg/mL | 4 µg/mL (≈ 10.5 µM) | 236 to 237 °C
5 | CCOc1cc(Cc2cnc(N)nc2N)cc2c1OC1(C=C2Br)CCC1 [Example 30, 5-[(4-Bromo-8-ethoxyspiro[2H-1-benzopyran-2,1′-cyclobutan]-6-yl)methyl]-2,4-pyrimidinediamine] | 8.9 nM | 210 nM | 4 µg/mL (≈ 9.59 µM) | 2 µg/mL (≈ 4.79 µM) | 213 to 214 °C
